Assay results reported in paper PMC10321576, “Cyclic peptides target the aromatic cage of a PHD-finger reader domain to modulate epigenetic protein function” (Chemical Science, 2023).
Peptide text beside a SMILES is read from it.

Target: T1, KDM7B PHD-finger (Homo sapiens, UniProt Q9UPP1)
T1 construct: KDM7B 1-66; His-tag (C); made in house
T1 sequence (Q9UPP1 1-66 isoform Q9UPP1-2): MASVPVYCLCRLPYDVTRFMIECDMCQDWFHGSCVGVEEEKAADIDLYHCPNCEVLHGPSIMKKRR
Assay: Protein NMR 1H-15N HSQC chemical shift perturbation
Format: binding
Settings: Free PHD vs PHD+peptide
Text: To better elucidate OC9 interactions at a single residue level, we conducted protein NMR studies using isotopically labelled PHD-finger.[48] Comparison of ^1H–^15N HSQC spectra for isotopically labelled apo and OC9-bound protein (Fig. 4a), independently assigned using ^13C,^15N 3D experiments (Fig. S21, NMR ESI ^†), identified 24 out of 66 protein residues with significant (standard deviation, s > 1) chemical shift perturbation (CSP, Δδ) of their backbone amides (Fig. 4b).
(a) ^1H–^15N HSQC of KDM7B PHD-finger in the apo (black) or bound forms with OC9 (purple, 1 : 1) or H3_1–21K4me3 (green, 3 : 1). (b) ^1H and ^15N chemical shift changes for apo vs. + OC9 were combined and weighted to give chemical shift perturbation (CSP) (Δδ) values. Standard deviation (σ) of Δδ are indicated (>1 pink, >2 purple). (c) TALOS+ predicts similar secondary structure elements in apo and OC9-bound solution protein complexes (light grey) to those found in PDB ID 3KV4 (dark grey). […] (e) Shielded ^1H-NMR signals centred around −0.5 ppm belonging to the OC9 V10 γ-methyl groups are observed in some OC9–PHD complexes, but not in apo protein, or complexes with OC9 V10A and OC9 V10DV. The V10^OC9 γ-methyl signals have NOE interactions (black semi-circles) with the W29^PHD indole, which itself is shielded upon binding of OC9 (indicated by ΔδH values).

CSP Trp side chain (Trp side chain 1H-15N): 0.6107
CSP Ala2 (residue Ala2 amide 1H-15N): 0.0035
CSP Ala42 (residue Ala42 amide 1H-15N): 0.4429
CSP Ala43 (residue Ala43 amide 1H-15N): 0.4556
CSP Arg11 (residue Arg11 amide 1H-15N): 0.0082
CSP Arg18 (residue Arg18 amide 1H-15N): 0.1460
CSP Arg65 (residue Arg65 amide 1H-15N): 0.0120
CSP Arg66 (residue Arg66 amide 1H-15N): 0.0057
CSP Asn52 (residue Asn52 amide 1H-15N): 0.0450
CSP Asp15 (residue Asp15 amide 1H-15N): 0.2640
CSP Asp24 (residue Asp24 amide 1H-15N): 0.0779
CSP Asp28 (residue Asp28 amide 1H-15N): 0.1748
CSP Asp44 (residue Asp44 amide 1H-15N): 0.1350
CSP Asp46 (residue Asp46 amide 1H-15N): 0.1724
CSP Cys8 (residue Cys8 amide 1H-15N): 0.2344
CSP Cys10 (residue Cys10 amide 1H-15N): 0.0550
CSP Cys23 (residue Cys23 amide 1H-15N): 0.1441
CSP Cys26 (residue Cys26 amide 1H-15N): 0.1542
CSP Cys34 (residue Cys34 amide 1H-15N): 0.0336
CSP Cys50 (residue Cys50 amide 1H-15N): 0.0486
CSP Cys53 (residue Cys53 amide 1H-15N): 0.0638
CSP Gln27 (residue Gln27 amide 1H-15N): 0.1502
CSP Glu22 (residue Glu22 amide 1H-15N): 0.1442
CSP Glu38 (residue Glu38 amide 1H-15N): 0.1925
CSP Glu39 (residue Glu39 amide 1H-15N): 0.2336
CSP Glu40 (residue Glu40 amide 1H-15N): 0.1019
CSP Glu54 (residue Glu54 amide 1H-15N): 0.0569
CSP Gly32 (residue Gly32 amide 1H-15N): 0.1798
CSP Gly36 (residue Gly36 amide 1H-15N): 0.1053
CSP Gly58 (residue Gly58 amide 1H-15N): 0.0436
CSP His31 (residue His31 amide 1H-15N): 0.2040
CSP His49 (residue His49 amide 1H-15N): 0.0826
CSP His57 (residue His57 amide 1H-15N): 0.0542
CSP Ile21 (residue Ile21 amide 1H-15N): 0.1523
CSP Ile45 (residue Ile45 amide 1H-15N): 0.1111
CSP Ile61 (residue Ile61 amide 1H-15N): 0.1500
CSP Leu9 (residue Leu9 amide 1H-15N): 0.2010
CSP Leu12 (residue Leu12 amide 1H-15N): 0.1857
CSP Leu47 (residue Leu47 amide 1H-15N): 0.0914
CSP Leu56 (residue Leu56 amide 1H-15N): 0.0558
CSP Lys41 (residue Lys41 amide 1H-15N): 0.1054
CSP Lys63 (residue Lys63 amide 1H-15N): 0.1309
CSP Lys64 (residue Lys64 amide 1H-15N): 0.0270
CSP Met20 (residue Met20 amide 1H-15N): 0.3618
CSP Met25 (residue Met25 amide 1H-15N): 0.6758
CSP Met62 (residue Met62 amide 1H-15N): 0.0955
CSP Phe19 (residue Phe19 amide 1H-15N): 0.3281
CSP Phe30 (residue Phe30 amide 1H-15N): 0.2483
CSP Ser3 (residue Ser3 amide 1H-15N): 0.0045
CSP Ser33 (residue Ser33 amide 1H-15N): 0.1228
CSP Ser60 (residue Ser60 amide 1H-15N): 0.0469
CSP Thr17 (residue Thr17 amide 1H-15N): 0.2705
CSP Trp29 (residue Trp29 amide 1H-15N): 0.3903
CSP Tyr7 (residue Tyr7 amide 1H-15N): 0.2658
CSP Tyr14 (residue Tyr14 amide 1H-15N): 0.3173
CSP Tyr48 (residue Tyr48 amide 1H-15N): 0.7926
CSP Val4 (residue Val4 amide 1H-15N): 0.0230
CSP Val6 (residue Val6 amide 1H-15N): 0.1610
CSP Val16 (residue Val16 amide 1H-15N): 0.3656
CSP Val35 (residue Val35 amide 1H-15N): 0.0666
CSP Val37 (residue Val37 amide 1H-15N): 0.0847
CSP Val55 (residue Val55 amide 1H-15N): 0.0250
SMILES: CC(C)C[C@@H]1NC(=O)[C@H](Cc2ccc(O)cc2)NC(=O)[C@H](Cc2ccc(O)cc2)NC(=O)CSC[C@@H](C(N)=O)NC(=O)[C@H]([C@@H](C)O)NC(=O)[C@H](CCCNC(=N)N)NC(=O)[C@H](Cc2ccccc2)NC(=O)[C@H](C(C)C)NC(=O)[C@H](CO)NC(=O)[C@@H]2CCCN2C(=O)[C@H](Cc2ccc(O)cc2)NC(=O)[C@@H]2CCCN2C(=O)[C@H](Cc2c[nH]cn2)NC(=O)[C@H]([C@@H](C)O)NC1=O [OC9] (HELM PEPTIDE1{[O=C(C[*:3])[*:2]].Y.Y.L.T.H.P.Y.P.S.V.F.R.T.C.[am]}$PEPTIDE1,PEPTIDE1,1:R3-15:R3$$$V2.0)
